From patent publication US20260297060A1, “COMPOUNDS FOR THE DEGRADATION OF MUTANT BRAF” (C4 THERAPEUTICS, INC., priority 2023, published 2026)
Read-outs that look alike come from different tables or passages of the source.

Assay: Pharmacokinetics in female BALB/c nude mice bearing A375 xenografts, 1 day dosing (PK and PD study): plasma, tumor and brain concentrations, AUC
Format: in vivo
Details: mouse, po
Source text: The concentrations of Dabrafenib, Compound 26 and Compound 141 in the treatment of female BALB/c nude mice bearing A375 xenografts are shown in Table 62-Table 72 and FIG. 52-FIG. 73.

[1] = plasma, 1.5 mg/kg, Compound 141, 1.5 mg/kg p.o. BID × 1 day, post 1st dose, read-out: Mean Concentration in Plasma ± SEM
[2] = plasma, 1.5 mg/kg, Compound 141, 1.5 mg/kg p.o. BID × 1 day, post 2nd dose, read-out: Mean Concentration in Plasma ± SEM
[3] = plasma, 3 mg/kg, 3 mg/kg p.o. QD × 1 day, read-out: Mean Concentration in Plasma ± SEM
[4] = plasma, 5 mg/kg, 5 mg/kg p.o. BID × 1 day, post 1st dose, read-out: Mean Concentration in Plasma ± SEM
[5] = plasma, 5 mg/kg, 5 mg/kg p.o. BID × 1 day, post 2nd dose, read-out: Mean Concentration in Plasma ± SEM
[6] = tumor, 0.75 mg/kg, 0.75 mg/kg p.o. BID × 1 day, post 2nd dose, read-out: Mean Concentration in Tumor ± SEM
[7] = tumor, 1 mg/kg, 1 mg/kg p.o. TID × 1 day, post 3rd dose, read-out: Mean Concentration in Tumor ± SEM
[8] = tumor, 1.5 mg/kg, Compound 141, 1.5 mg/kg p.o. BID × 1 day, post 2nd dose, read-out: Mean Concentration in Tumor ± SEM
[9] = tumor, 3 mg/kg, 3 mg/kg p.o. QD × 1 day, read-out: Mean Concentration in Tumor ± SEM
[10] = tumor, 5 mg/kg, 5 mg/kg p.o. BID × 1 day, post 2nd dose, read-out: Mean Concentration in Tumor ± SEM

Compound `CCN(C)S(=O)(=O)Nc1ccc(F)c(Oc2ccc3ncn(C4CC5(CCN(C6CC7(C6)CN(c6cc8c(cc6F)c(N6CCC(=O)NC6=O)nn8C)C7)CC5)C4)c(=O)c3c2)c1C#N` (centres unmarked) [Compound 141, 6-[2-cyano-3-[[ethyl(methyl)sulfamoyl]amino]-6-fluoro-phenoxy]-3-[7-[2-[3-(2,4-dioxohexahydropyrimidin-1-yl)-5-fluoro-1-methyl-indazol-6-yl]-2-azaspiro[3.3]heptan-6-yl]-7-azaspiro[3.5]nonan-2-yl]-4-oxo-quinazoline] has a concentration at 36 h (plasma, 1 mg/kg, 1 mg/kg p.o. TID × 1 day, post 3rd dose, read-out: Mean Concentration in Plasma ± SEM) of 3.2 ± 0.392 ng/mL, a concentration at 0.25 h [1] of 710 ± 61.9 ng/mL and a concentration at 0.5 h [1] of 1150 ± 94 ng/mL. The concentration at 1 h [1] was 2030 ± 255 ng/mL, the concentration at 2 h [1] was 1610 ± 128 ng/mL and the concentration at 4 h [1] was 796 ± 312 ng/mL. The concentration at 8 h [1] was 256 ± 19.3 ng/mL, the concentration at 12 h [1] was 43.4 ± 4.65 ng/mL and the concentration at 0.25 h [2] was 359 ± 30.7 ng/mL. It also gave a concentration at 0.5 h [2] of 830 ± 129 ng/mL, a concentration at 1 h [2] of 1560 ± 99.1 ng/mL and a concentration at 2 h [2] of 1550 ± 181 ng/mL. For the same compound, the concentration at 4 h [2] was 831 ± 96.6 ng/mL, the concentration at 10 h [2] was 115 ± 34.3 ng/mL and the concentration at 24 h [2] was 1.2 ± 0.262 ng/mL. It also gave a concentration at 0.25 h [3] of 1070 ± 209 ng/mL, a concentration at 0.5 h [3] of 2020 ± 160 ng/mL and a concentration at 1 h [3] of 2830 ± 372 ng/mL. The concentration at 2 h [3] was 3660 ± 315 ng/mL, the concentration at 4 h [3] was 1440 ± 285 ng/mL and the concentration at 8 h [3] was 661 ± 279 ng/mL. For the same compound, the concentration at 10 h [3] was 307 ± 60.4 ng/mL, the concentration at 24 h [3] was 3.86 ± 2.5 ng/mL and the concentration at 36 h [3] was 1.05 ng/mL. It also gave a concentration at 0.25 h [4] of 1810 ± 126 ng/mL, a concentration at 0.5 h [4] of 3460 ± 404 ng/mL and a concentration at 1 h [4] of 4860 ± 155 ng/mL. The concentration at 2 h [4] was 3650 ± 760 ng/mL, the concentration at 4 h [4] was 1220 ± 55.5 ng/mL and the concentration at 8 h [4] was 648 ± 142 ng/mL. It also gave a concentration at 12 h [4] of 43.6 ± 2.7 ng/mL, a concentration at 0.25 h [5] of 1680 ± 89.6 ng/mL and a concentration at 0.5 h [5] of 3160 ± 596 ng/mL. For the same compound, the concentration at 1 h [5] was 4850 ± 488 ng/mL, the concentration at 2 h [5] was 3620 ± 428 ng/mL and the concentration at 4 h [5] was 1750 ± 468 ng/mL. The concentration at 10 h [5] was 484 ± 109 ng/mL, the concentration at 24 h [5] was 4.28 ± 1.89 ng/mL and the concentration at 36 h [5] was 2.06 ± 1.17 ng/mL. The concentration at 48 h [5] was 0.635 ng/mL, the concentration at 1 h [6] was 117 ± 11 ng/g and the concentration at 4 h [6] was 143 ± 37.7 ng/g. It also gave a concentration at 10 h [6] of 93 ± 22.1 ng/g, a concentration at 24 h [6] of 3.27 ng/g and a concentration at 1 h [7] of 152 ± 35.7 ng/g. The concentration at 4 h [7] was 254 ± 43.2 ng/g, the concentration at 10 h [7] was 205 ± 40.9 ng/g and the concentration at 24 h [7] was 16.7 ± 12.2 ng/g. For the same compound, the concentration at 48 h [7] was 8.07 ng/g, the concentration at 0.25 h [8] was 58.9 ± 26.7 ng/g and the concentration at 0.5 h [8] was 61.5 ± 14 ng/g. For the same compound, the concentration at 1 h [8] was 239 ± 17.6 ng/g, the concentration at 2 h [8] was 382 ± 43.9 ng/g and the concentration at 4 h [8] was 214 ± 27.1 ng/g. For the same compound, the concentration at 10 h [8] was 54.7 ± 17.9 ng/g, the concentration at 24 h [8] was 22.5 ± 18.5 ng/g and the concentration at 36 h [8] was 38.5 ng/g. For the same compound, the concentration at 48 h [8] was 11.1 ng/g, the concentration at 1 h [9] was 254 ± 26.3 ng/g and the concentration at 4 h [9] was 439 ± 90.9 ng/g. For the same compound, the concentration at 10 h [9] was 130 ± 19 ng/g, the concentration at 24 h [9] was 12.9 ± 7.75 ng/g and the concentration at 48 h [9] was 7.64 ng/g. The concentration at 1 h [10] was 626 ± 78.6 ng/g, the concentration at 4 h [10] was 636 ± 83.4 ng/g and the concentration at 10 h [10] was 205 ± 47.2 ng/g. The concentration at 24 h [10] was 6.26 ± 1.12 ng/g and the concentration at 48 h [10] was 10.6 ng/g.
